Our source for the insect mortality rate values is patent US8598367B2, “Nitrogen-containing heterocyclic compound and pest control agent” (Nippon Soda Co., Ltd., priority 2008, dated 2013).

The structures appear in SMILES notation.

One series has as its system Aphis gossypii. In words: Test case 1 Efficacy against Aphis gossypii. It counts as in vivo. The conditions noted are these: 125 ppm emulsion (Formulation Example 2) applied to cucumbers parasitized with offspring; 25° C., humidity 65%; after five days. The text has this: Test case 1 Efficacy against Aphis gossypii
The test was repeated twice.

Series [1] relates to Tetranychus urticae with organophosphate resistance. The experiment in a line: Test Case 2 Efficacy Against Tetranychus urticae. The conditions noted are these: 125 ppm wettable powder (Formulation Example 1) applied to bean leaf with female adults; 25° C., humidity 65%; after three days.

Take `Cc1nc(N(C)C)nc(OC(=O)N(C)C)c1C` [pirimicarb]: in the series with Aphis gossypii, the insect mortality rate is recorded as 9%.

With `Cc1cc(Cl)ccc1N=CN(C)C` [chlordimeform], the insect mortality rate in series [1] is on record as 9%.
